Reference: ChEMBL document CHEMBL1201862, “PubChem BioAssay data set” (2004)
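Following 48 hours of exposure in 96-well plates, responses at five concentrations were used to interpolate endpoints linearly. Abbreviation: GI50, concentration required for 50% inhibition of growth.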 Activity calls are given as the source filed them. No stated cut-off is given here; in the data, active = GI50 up to about 1.1 µM and inactive = higher.

Assays:
Assay in all cases: inhibition of tumour cell growth, NCI panel, 48 h
COLO 205 = tested on: COLO 205
UACC-62 = tested on: UACC-62
SK-MEL-5 = tested on: SK-MEL-5
SR = tested on: SR
HT-29 = tested on: HT-29
SF-539 = tested on: SF-539
SNB-75 = tested on: SNB-75
EKVX = tested on: EKVX
HCT-116 = tested on: HCT-116
SW-620 = tested on: SW-620
OVCAR-3 = tested on: OVCAR-3
MOLT-4 = tested on: MOLT-4
NCI-H226 = tested on: NCI-H226
KM12 = tested on: KM12
RPMI-8226 = tested on: RPMI-8226
SK-MEL-28 = tested on: SK-MEL-28
DU-145 = tested on: DU-145
NCI-H460 = tested on: NCI-H460
NCI-H23 = tested on: NCI-H23
A549 = tested on: A549

SMILES	GI50 (COLO 205)	GI50 (UACC-62)	GI50 (SK-MEL-5)	GI50 (SR)	GI50 (HT-29)	GI50 (SF-539)	GI50 (SNB-75)	GI50 (EKVX)	GI50 (HCT-116)	GI50 (SW-620)	GI50 (OVCAR-3)	GI50 (MOLT-4)	GI50 (NCI-H226)	GI50 (KM12)	GI50 (RPMI-8226)	GI50 (SK-MEL-28)	GI50 (DU-145)	GI50 (NCI-H460)	GI50 (NCI-H23)	GI50 (A549)
c1ccc2c(OCC3CO3)ccc(OCC3CO3)c2c1 (stereo unspecified)	10.6 µM (inactive)	3.06 µM (inactive)	6.64 µM (inactive)	0.343 µM (active)	4.82 µM (inactive)	2.21 µM (inactive)	14.6 µM (inactive)	17.4 µM (inactive)	1.36 µM (inactive)	1.26 µM (inactive)	1.38 µM (inactive)	0.352 µM (active)	12.1 µM (inactive)	4.14 µM (inactive)	3.04 µM (inactive)	9.98 µM (inactive)	2.36 µM (inactive)	3.42 µM (inactive)	2.51 µM (inactive)	4.32 µM (inactive)
O=C1C(Cl)=C(NCCO)C(=O)c2c(O)ccc(O)c21	1.74 µM (inactive)	1.7 µM (inactive)	1.41 µM (inactive)	2.41 µM (inactive)	2.48 µM (inactive)	2.52 µM (inactive)	4.38 µM (inactive)	6.37 µM (inactive)	1.95 µM (inactive)	2.37 µM (inactive)	2.76 µM (inactive)	3.33 µM (inactive)	> 10 µM (inactive)	2.05 µM (inactive)	3.12 µM (inactive)	1.92 µM (inactive)	2.36 µM (inactive)	1.85 µM (inactive)	2.6 µM (inactive)	1.87 µM (inactive)
Cc1cnc2[nH]c(-c3cccc(Cl)c3)cc(=O)c2c1	0.0807 µM (active)	0.0224 µM (active)	0.0461 µM (active)	0.0345 µM (active)	0.0392 µM (active)	0.0194 µM (active)	0.0378 µM (active)	> 50.1 µM (inactive)	0.0361 µM (active)	0.0119 µM (active)	0.0216 µM (active)	0.0338 µM (active)	0.0708 µM (active)	0.102 µM (active)	< 0.0206 µM (active)	0.315 µM (active)	0.154 µM (active)	0.0378 µM (active)	0.375 µM (active)	0.0676 µM (active)
C=C(CN(C)C)C(=O)c1ccccc1	1.46 µM (inactive)	14.8 µM (inactive)	15.2 µM (inactive)	2.09 µM (inactive)	10.2 µM (inactive)	8.34 µM (inactive)	17 µM (inactive)	21.8 µM (inactive)	5.51 µM (inactive)	1.69 µM (inactive)	3.63 µM (inactive)	1.91 µM (inactive)	18.3 µM (inactive)	19.9 µM (inactive)	4.13 µM (inactive)	16.5 µM (inactive)	16.6 µM (inactive)	18.4 µM (inactive)	19.4 µM (inactive)	22.5 µM (inactive)
O=C(O)CSc1n[nH]c(=O)[nH]c1=O	> 100 µM (inactive)	> 100 µM (inactive)	> 100 µM (inactive)	> 100 µM (inactive)	> 100 µM (inactive)	> 100 µM (inactive)	> 100 µM (inactive)	> 100 µM (inactive)	> 100 µM (inactive)	> 100 µM (inactive)	74.8 µM (inactive)	> 100 µM (inactive)	> 100 µM (inactive)	> 100 µM (inactive)	> 100 µM (inactive)	> 100 µM (inactive)	> 100 µM (inactive)	> 100 µM (inactive)	> 100 µM (inactive)	> 100 µM (inactive)
C=C(CN(C)C)C(=O)c1ccc(Oc2ccccc2)cc1	1.04 µM (active)	4.39 µM (inactive)	7.21 µM (inactive)	0.692 µM (active)	7.82 µM (inactive)	3.13 µM (inactive)	15.9 µM (inactive)	16.9 µM (inactive)	2.16 µM (inactive)	1.31 µM (inactive)	4.86 µM (inactive)	0.356 µM (active)	13.6 µM (inactive)	12.8 µM (inactive)	0.962 µM (active)	7.66 µM (inactive)	14.5 µM (inactive)	27.3 µM (inactive)	7.71 µM (inactive)	19.5 µM (inactive)
Cc1nc2c(O)c3c(c(O)c2nc1C)C1C=CC3CC1	19.7 µM (inactive)	21.2 µM (inactive)	14 µM (inactive)	9.59 µM (inactive)	21.4 µM (inactive)	14.6 µM (inactive)	32.2 µM (inactive)	11 µM (inactive)	6.27 µM (inactive)	12.4 µM (inactive)	6.22 µM (inactive)	1.06 µM (active)	29.6 µM (inactive)	15.7 µM (inactive)	2.92 µM (inactive)	16.4 µM (inactive)	> 75.3 µM (inactive)	30.3 µM (inactive)	5.86 µM (inactive)	24.9 µM (inactive)
O=C1C(NCCF)=C(Cl)C(=O)c2ncccc21		0.247 µM (active)	0.145 µM (active)	2.36 µM (inactive)	2.47 µM (inactive)	1 µM (active)	0.617 µM (active)	1.71 µM (inactive)	1.18 µM (inactive)	0.378 µM (active)	2.48 µM (inactive)	1.22 µM (inactive)	1.71 µM (inactive)	1.54 µM (inactive)	0.49 µM (active)	0.701 µM (active)	1.11 µM (active)	0.429 µM (active)	0.653 µM (active)	1.73 µM (inactive)
COc1cc(OC)c2c(c1OC)OCC(Cc1ccc(O)cc1)C2=O (stereo unspecified)	> 25 µM (inactive)	> 25 µM (inactive)	19.8 µM (inactive)	> 25 µM (inactive)	> 25 µM (inactive)	> 25 µM (inactive)	> 25 µM (inactive)		> 25 µM (inactive)	> 25 µM (inactive)	21 µM (inactive)	> 25 µM (inactive)	> 25 µM (inactive)	> 25 µM (inactive)	> 25 µM (inactive)	> 25 µM (inactive)	> 25 µM (inactive)	> 25 µM (inactive)	> 25 µM (inactive)	> 25 µM (inactive)
Cc1ccc(/N=N/c2c(O)ccc3cc(S(=O)(=O)O)cc(S(=O)(=O)O)c23)cc1	> 100 µM (inactive)	> 100 µM (inactive)	> 100 µM (inactive)	> 100 µM (inactive)		> 100 µM (inactive)	> 100 µM (inactive)	> 100 µM (inactive)	> 100 µM (inactive)	> 100 µM (inactive)	> 100 µM (inactive)	> 100 µM (inactive)	> 100 µM (inactive)	> 100 µM (inactive)	< 0.01 µM (active)	> 100 µM (inactive)	> 100 µM (inactive)	> 100 µM (inactive)	> 100 µM (inactive)	> 100 µM (inactive)
NS(=O)(=O)c1ccc(NC(=O)c2cc([N+](=O)[O-])cc([N+](=O)[O-])c2)cc1	19.7 µM (inactive)	15.7 µM (inactive)	38.7 µM (inactive)	63.1 µM (inactive)	43.1 µM (inactive)	30.7 µM (inactive)	> 100 µM (inactive)		45 µM (inactive)	66.4 µM (inactive)	25.8 µM (inactive)	68.9 µM (inactive)	46.5 µM (inactive)	40.4 µM (inactive)	30.2 µM (inactive)	> 100 µM (inactive)	59.7 µM (inactive)	31.8 µM (inactive)	41.4 µM (inactive)	42.6 µM (inactive)
